These results are taken from ChEMBL document CHEMBL1133264, “Development of peptidyl alpha-keto-beta-aldehydes as new inhibitors of cathepsin L--comparisons of potency and selectivity profiles with cathepsin B” (Bioorg Med Chem Lett, 2000).

One assay has as its target Cathepsin B (Bos taurus, UniProt P07688). The experiment in a line: Ability to block cathepsin B-catalyzed hydrolysis of the fluorogenic substrate Z-Arg-Arg-NHMec.
For assay [1], the target named is T1, Procathepsin L (Homo sapiens, UniProt P07711). The experiment in a line: Ability to block cathepsin L-catalyzed hydrolysis of the fluorogenic substrate Z-Phe-Arg-NHMec.
For assay [2], the target named is T1, Procathepsin L. Description: Ability to block cathepsin L-catalyzed hydrolysis of the fluorogenic substrate Z-Phe-Arg-NHMec, at 100 uM conc.; no inhibition.

The term Ki denotes the equilibrium dissociation constant of an inhibitor or competing ligand from its target.

T1 sequence (P07711 whole entry): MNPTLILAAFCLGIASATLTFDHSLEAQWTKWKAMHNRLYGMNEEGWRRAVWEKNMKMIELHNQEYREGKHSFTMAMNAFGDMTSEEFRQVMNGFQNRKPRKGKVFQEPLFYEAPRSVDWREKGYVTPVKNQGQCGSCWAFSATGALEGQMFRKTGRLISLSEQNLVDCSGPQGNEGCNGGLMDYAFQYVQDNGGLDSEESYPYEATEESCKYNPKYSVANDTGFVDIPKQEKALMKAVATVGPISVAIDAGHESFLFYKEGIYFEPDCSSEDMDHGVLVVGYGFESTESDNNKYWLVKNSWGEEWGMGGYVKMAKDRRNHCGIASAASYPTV

`N=C(N)NCCC[C@H](NC(=O)[C@H](Cc1ccccc1)C(=O)OCc1ccccc1)C(=O)C=O`: the Ki came out at 40 nM on Cathepsin B and 90 nM at Procathepsin L [1].
The matching figures for `CC(=O)N[C@@H](CC(C)C)C(=O)N[C@@H](CC(C)C)C(=O)N[C@@H](CCCN=C(N)N)C(=O)C=O`: 1250 nM and 970 nM.
As to `CC(=O)N[C@@H](CCCN=C(N)N)C(=O)N[C@@H](CCCN=C(N)N)C(=O)C=O`, the Ki on Cathepsin B is 640 nM; on Procathepsin L [2], “Not Active”.
With `CCCCOc1ccc(C[C@H](NC(=O)[C@H](Cc2ccccc2)NC(=O)OCc2ccccc2)C(=O)C=O)cc1`, the Ki is 214 nM on Cathepsin B and 0.6 nM at Procathepsin L [1].
